Data from patent publication US6699859B1 (dated 2004).

Row | melting point [°C] | SMILES
1 | 221.9 to 222.8 | Cn1cnc(COc2nn3c(-c4cccs4)nnc3c(Cl)c2N2CCOCC2)n1
2 | 174.5 to 176 | Cn1ncnc1COc1nn2c(-c3ccccc3)nnc2c(Cl)c1N1CCCC1
